Reference: paper PMC10830684, “Effect of Oregon grape root extracts on P-glycoprotein mediated transport in in vitro cell lines” (Journal of Pharmacy & Pharmaceutical Sciences, 2024)

How the values were obtained:
MDCKII wild-type cells = assay: MTT cytotoxicity assay in MDCKII wild-type cells; format: cell-based, Canine; settings: MDCKII-WT cells, 4 hours exposure
Description: (§1) We initiated cytotoxicity experiments with the Caco-2, MDCKII-MDR1 and MDCKII-wild type cells on Day 7 (Caco-2) and Day 4 (MDCKII-MDR1 and MDCKII-wild type) after the initial plating of the cells at 2.5 × 10^3 cells/well in 48-well plates (Becton Dickinson, Franklin Lakes, NJ, USA). See details of preparation for the cytotoxicity experiments in Supplementary Material.
We initiated cytotoxicity experiments with the Caco-2, MDCKII-MDR1 and MDCKII-wild type cells on Day 7 (Caco-2) and Day 4 (MDCKII-MDR1 and MDCKII-wild type) after the initial plating of the cells at 2.5x10^3 cells/well in 48-well plates (Becton Dickinson, Franklin Lakes, NJ, USA). Stock solutions of 10 mM berberine or berbamine were prepared by dissolving the compounds in DMSO (berberine) or distilled water (berbamine). […] The final concentration of DMSO was 0.003% (v/v), 0.03% (v/v), 0.3% (v/v), 1% (v/v), 1.5% (v/v), and 3% (v/v) DMSO/culture medium for 0.3 μM, 3 μM, 30 μM, 100 μM, ,150 μM, and 300 μM, respectively. The final concentration of ethanol was 0.15% (v/v) ethanol/culture medium. Ketoconazole (75 µM) was used as a positive control and no treatment (medium alone) was used as a negative control for each experiment.
(§2) The LDH enzymatic activities were assayed using the method of Mitchell et al.(1). […] Enzyme leakage into the medium was expressed as the percentage of total cellular LDH. The MTT (3-(4,5-dimethythiazole-2yl)-2,5-diphenyl tetrazolium bromide) reduction assay was done according to Mosmann (2). This assay was conducted immediately with the same cells used in the LDH study. The results were expressed as the percentage of negative controls.

[1] = design: method as in PMID 16086103; settings: renal-transplant patients; co-administration of 200 mg berberine three times a day for 12 days; cited from earlier work
Caco-2 cells [2] = assay: MTT cytotoxicity assay in Caco-2 cells; format: cell-based, human; settings: for MTT assay: 4 hours exposure
Description: as §1
(§3) We initiated cytotoxicity experiments with the Caco-2, MDCKII-MDR1 and MDCKII-wild type cells on Day 7 (Caco-2) and Day 4 (MDCKII-MDR1 and MDCKII-wild type) after the initial plating of the cells at 2.5x10^3 cells/well in 48-well plates (Becton Dickinson, Franklin Lakes, NJ, USA). Stock solutions of 10 mM berberine or berbamine were prepared by dissolving the compounds in DMSO (berberine) or distilled water (berbamine).
as §2

Caco-2 cells [3] = assay: LDH leakage cytotoxicity assay in Caco-2 cells; format: cell-based, human; settings: 4 hours exposure
Description: as §1, §3, §2

P-glycoprotein = P-glycoprotein (Homo sapiens, UniProt P08183); assay: Effect on 3H-CsA and 3H-digoxin transport in Caco-2 cells; settings: for Papp (B to A) of 3H-CsA / Papp (B to A) of 3H-digoxin: Caco-2; for Papp (B to A) of 3H-CsA: 0.5 µM 3H-CsA
Sequence of P-glycoprotein (P08183 whole entry): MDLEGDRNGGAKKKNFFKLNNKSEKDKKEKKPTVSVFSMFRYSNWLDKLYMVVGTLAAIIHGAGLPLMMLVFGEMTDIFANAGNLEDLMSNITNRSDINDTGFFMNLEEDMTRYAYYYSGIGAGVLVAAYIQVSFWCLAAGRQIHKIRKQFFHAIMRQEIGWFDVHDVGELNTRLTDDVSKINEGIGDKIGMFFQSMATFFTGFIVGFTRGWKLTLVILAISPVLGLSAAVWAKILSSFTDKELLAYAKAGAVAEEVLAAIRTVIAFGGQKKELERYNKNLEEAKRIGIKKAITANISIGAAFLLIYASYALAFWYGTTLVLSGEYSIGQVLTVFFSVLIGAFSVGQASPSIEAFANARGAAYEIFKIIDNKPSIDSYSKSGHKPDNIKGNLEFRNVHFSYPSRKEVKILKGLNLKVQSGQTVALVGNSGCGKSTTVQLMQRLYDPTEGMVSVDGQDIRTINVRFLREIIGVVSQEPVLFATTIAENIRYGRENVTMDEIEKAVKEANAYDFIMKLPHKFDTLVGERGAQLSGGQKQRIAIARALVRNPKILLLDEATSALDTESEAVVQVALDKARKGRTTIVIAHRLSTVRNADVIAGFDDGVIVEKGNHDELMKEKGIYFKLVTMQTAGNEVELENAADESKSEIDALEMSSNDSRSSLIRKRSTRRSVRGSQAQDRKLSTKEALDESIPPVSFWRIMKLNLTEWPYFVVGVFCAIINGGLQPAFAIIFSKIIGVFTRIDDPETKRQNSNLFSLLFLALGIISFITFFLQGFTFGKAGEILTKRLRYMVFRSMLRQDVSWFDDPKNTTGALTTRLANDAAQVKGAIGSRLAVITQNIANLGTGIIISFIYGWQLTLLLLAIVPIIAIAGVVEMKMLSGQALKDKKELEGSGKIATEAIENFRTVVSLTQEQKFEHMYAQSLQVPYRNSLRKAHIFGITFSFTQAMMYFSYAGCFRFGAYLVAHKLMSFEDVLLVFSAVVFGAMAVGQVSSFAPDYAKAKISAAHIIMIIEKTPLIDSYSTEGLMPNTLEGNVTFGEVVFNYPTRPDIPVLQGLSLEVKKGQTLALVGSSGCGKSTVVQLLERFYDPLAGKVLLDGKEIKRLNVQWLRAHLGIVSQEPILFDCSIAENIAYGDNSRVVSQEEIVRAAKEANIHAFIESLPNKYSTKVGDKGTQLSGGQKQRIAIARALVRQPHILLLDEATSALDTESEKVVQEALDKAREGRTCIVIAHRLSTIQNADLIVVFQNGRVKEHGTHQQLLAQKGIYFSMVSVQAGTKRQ

COc1ccc2cc3[n+](cc2c1OC)CCc1cc2c(cc1-3)OCO2.[Cl-] [Berberine, Berberine chloride]
MTT assay (MDCKII wild-type cells; 0.03 µM): □ (%MTT reduction is not significantly decreased compared with the negative control) | MTT assay (MDCKII wild-type cells; 3.0 µM): □ (%MTT reduction is not significantly decreased compared with the negative control) | MTT assay (MDCKII wild-type cells; 100 µM): □ (%MTT reduction is not significantly decreased compared with the negative control) | MTT assay (MDCKII wild-type cells; 150 µM): □ (%MTT reduction is not significantly decreased compared with the negative control) | MTT assay (MDCKII wild-type cells; 300 µM): 24.82 ± 15.91% | increase of mean area under the curve of CsA [1]: 34.5% | MTT assay (Caco-2 cells [2]; 0.03 µM): □ (%MTT reduction is not significantly decreased compared with the negative control) | MTT assay (Caco-2 cells [2]; 3.0 µM): □ (%MTT reduction is not significantly decreased compared with the negative control) | MTT assay (Caco-2 cells [2]; 100 µM): □ (%MTT reduction is not significantly decreased compared with the negative control) | MTT assay (Caco-2 cells [2]; 150 µM): 76.37 ± 2.13% | earliest time of significant increase in LDH leakage and decrease in MTT reduction (Caco-2 cells [2]; 150 µM, time-response 2, 4, 6, 8 hr, data not shown): 4 h | MTT assay (Caco-2 cells [2]; 300 µM): 58.25 ± 6.37% | MTT assay (Caco-2 cells [2]; 300 µM, listed as berberine): 58.25 ± 9.24% | LDH assay (Caco-2 cells [3]; 150 µM): 25.93 ± 4.78% | LDH assay (Caco-2 cells [3]; 300 µM): 44.88 ± 2.09% | Papp (B to A) of 3H-CsA (P-glycoprotein; 10 µM compound): 1.79 ± 0.16 x 10^−6 cm/s | Papp (B to A) of 3H-digoxin (P-glycoprotein; 10 µM compound, 0.5 µM 3H-digoxin): 2.37 ± 0.26 x 10^−6 cm/s | Papp (B to A) of 3H-CsA (P-glycoprotein; 30 µM compound): 1.52 ± 0.14 x 10^−6 cm/s | Papp (B to A) of 3H-digoxin (P-glycoprotein; 30 µM compound, 0.5 µM 3H-digoxin): 2.26 ± 0.29 x 10^−6 cm/s | Papp (B to A) of 3H-CsA (P-glycoprotein; 100 µM compound): 1.60 ± 0.45 x 10^−6 cm/s | Papp (B to A) of 3H-digoxin (P-glycoprotein; 100 µM compound, 0.5 µM 3H-digoxin): 2.93 ± 0.07 x 10^−6 cm/s | lowest concentration with significant decrease of B to A transport of 0.5 µM 3H-CsA (P-glycoprotein; Caco-2 cells): 10 µM | effect on digoxin transport (P-glycoprotein; Caco-2 cells, up to 30 μM, 0.5 µM 3H-digoxin): no significant effects
